Laboratory results published in PubChem BioAssay (NCI).
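Each compound was tested at five concentrations against cells in 96-well plates for 48 hours. GI50 is the concentration that inhibits growth by half. TGI is the concentration that stops growth completely.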

Legend:
Experiment in all cases: inhibition of tumour cell growth, NCI panel, 48 h
OVCAR-5 ovarian = test system: OVCAR-5 ovarian
OVCAR-3 ovarian = test system: OVCAR-3 ovarian
IGROV1 ovarian = test system: IGROV1 ovarian
HOP-92 NSCLC = test system: HOP-92 NSCLC
M14 melanoma = test system: M14 melanoma
OVCAR-8 ovarian = test system: OVCAR-8 ovarian
SNB-75 CNS = test system: SNB-75 CNS
786-0 renal = test system: 786-0 renal
RXF 393 renal = test system: RXF 393 renal
A498 renal = test system: A498 renal

SMILES | TGI (OVCAR-5 ovarian) | TGI (OVCAR-3 ovarian) | TGI (IGROV1 ovarian) | TGI (HOP-92 NSCLC) | TGI (M14 melanoma) | TGI (OVCAR-8 ovarian) | TGI (SNB-75 CNS) | TGI (786-0 renal) | TGI (RXF 393 renal) | TGI (A498 renal) | GI50 (HOP-92 NSCLC) | GI50 (OVCAR-5 ovarian) | GI50 (OVCAR-3 ovarian) | GI50 (IGROV1 ovarian) | GI50 (RXF 393 renal) | GI50 (M14 melanoma) | GI50 (OVCAR-8 ovarian) | GI50 (SNB-75 CNS) | GI50 (A498 renal)
COc1ccc(-c2nc3ncccn3c2-c2ccc(SC)cc2)cc1 | 7.06 µM | 2.09 µM | 8.15 µM | 70.4 µM | 12.2 µM | > 100 µM | > 100 µM | 46 µM |  |  |  |  |  |  |  |  |  |  | 
COc1ccc2c(C(=O)c3cn(CCN4CCOCC4)c4ccccc34)cccc2c1 | > 100 µM | > 25.5 µM | > 100 µM | > 100 µM | > 87.5 µM | > 100 µM | > 100 µM | > 100 µM | > 100 µM | > 100 µM |  |  |  |  |  |  |  |  | 
O=C(O)CCSC(CC1(c2ccc(Cl)cc2)NC(=O)CCS1)c1ccccc1 (stereo not given) | 37 µM | 41.5 µM | 31.7 µM | 62.2 µM | 50.9 µM | 39.5 µM | 32.3 µM | 20.9 µM | > 54.8 µM | 42.9 µM |  |  |  |  |  |  |  |  | 
NCCc1cc(O)c(O)cc1O | 61.3 µM | 58.4 µM | 38.2 µM | 59.5 µM | 92.5 µM | > 53.6 µM | 70.6 µM | > 69.1 µM | 97.5 µM | > 100 µM | 10 µM |  |  |  |  |  |  |  | 
O=P1(c2ccccc2)Nc2ccccc2SSc2ccccc2N1 | 36.1 µM | 28.3 µM | 38.2 µM | 30.7 µM |  | 37.2 µM | 39.4 µM |  | 34.5 µM | 41.2 µM |  |  |  |  |  |  |  |  | 
CSc1ccsc1-c1sc(-c2cc(SC)c(-c3sc(-c4cc(SC)c(-c5sccc5SC)s4)cc3SC)s2)cc1SC | > 100 µM | > 100 µM | > 100 µM | > 100 µM | > 100 µM | > 100 µM |  | 29.1 µM | > 100 µM | > 100 µM |  |  |  |  |  |  |  |  | 
CN(C)CCCn1cnc2cc(Cl)c(Cl)cc21 | > 100 µM | > 100 µM | > 100 µM |  | 36.1 µM | > 100 µM | 98.9 µM | > 100 µM | > 100 µM | > 100 µM |  |  |  |  |  |  |  |  | 
CCCOC(=O)CNC(=O)OC(C)(C)C | > 100 µM | > 100 µM | > 100 µM | > 100 µM | > 100 µM | > 100 µM | > 100 µM |  | > 100 µM |  |  |  |  |  |  |  |  |  | 
COc1ccc(/C(Cl)=C(\C=O)c2ccc(OC)cc2)cc1 | > 100 µM | > 100 µM | > 100 µM |  | > 100 µM | > 100 µM | > 100 µM |  | > 100 µM | > 100 µM |  |  |  |  |  |  |  |  | 
N=C1C(=N)c2ccccc2-c2ccccc21.N=C1C(=N)c2ccccc2-c2ccccc21.N=C1C(=N)c2ccccc2-c2ccccc21.[Cl-].[Ru+2] | 18.6 µM | 3.08 µM | 5.01 µM | 3.09 µM | 3.72 µM | 3.14 µM | 4.25 µM | 28.5 µM | 5.58 µM |  | 1.6 µM |  |  |  |  |  |  |  | 
COC(C)(C)OCCN1CCN(CCN2C3=C(C=C(C(C)=O)C3)Sc3ccccc32)CC1 | 59.1 µM | 45.8 µM | 35.5 µM | 92.9 µM | 40.4 µM | 42.1 µM | > 100 µM | 36 µM | 42.2 µM | 34 µM |  |  |  |  |  |  |  |  | 
C=CCN(C(=O)CNC(=O)C(F)(F)F)c1cc(OCc2ccccc2)c2c(c1)c(C)cn2S(=O)(=O)c1ccccc1 | > 100 µM | > 100 µM | > 100 µM | > 100 µM | > 100 µM | > 100 µM | > 76.2 µM | > 100 µM | > 100 µM |  |  |  |  |  |  |  |  |  | 
CC(=O)NNc1nc(-c2ccc([N+](=O)[O-])cc2)c(C#N)c(=O)n1C | 77 µM | 31.4 µM | 35 µM | 33.3 µM | > 100 µM | 89.3 µM | 54.9 µM | 47 µM | > 100 µM | 75.5 µM |  |  |  |  |  |  |  |  | 
Cc1cc(/N=C/c2ccc(F)cc2)n(-c2ccccc2)n1 | > 100 µM | > 100 µM | > 100 µM | > 100 µM | > 100 µM | > 100 µM | > 100 µM | > 100 µM | > 100 µM | > 100 µM |  |  |  |  |  |  |  |  | 
NCCCn1c2c(c3ccc([N+](=O)[O-])cc3c1=O)C(=O)c1ccccc1-2 | 1.3 µM | 0.525 µM | > 50 µM | 1.72 µM | 1.06 µM | 0.77 µM | 2.67 µM |  | 2.1 µM | 1.45 µM | 0.34 µM | 0.414 µM | 0.0966 µM | 0.215 µM | 0.709 µM | 0.161 µM | 0.114 µM | 0.835 µM | 0.277 µM
COc1cc(C2CC(c3cccc(Nc4ccncc4)c3)=NN2c2ccc(Cl)cc2)cc(OC)c1OC (stereo not given) | 3.13 µM | 3.03 µM |  | 2.7 µM |  |  | 2.85 µM |  |  | 6.26 µM | 1.25 µM | 1.66 µM | 1.61 µM |  |  |  |  | 1.28 µM | 1.32 µM

SMILES | TGI (OVCAR-5 ovarian) | TGI (OVCAR-3 ovarian) | TGI (IGROV1 ovarian) | TGI (HOP-92 NSCLC) | TGI (M14 melanoma) | TGI (OVCAR-8 ovarian) | TGI (SNB-75 CNS) | TGI (786-0 renal) | TGI (RXF 393 renal) | TGI (A498 renal) | GI50 (HOP-92 NSCLC) | GI50 (OVCAR-5 ovarian) | GI50 (OVCAR-3 ovarian) | GI50 (IGROV1 ovarian) | GI50 (RXF 393 renal) | GI50 (M14 melanoma) | GI50 (OVCAR-8 ovarian) | GI50 (SNB-75 CNS) | GI50 (A498 renal)
O=C(Nc1ccc([N+](=O)[O-])cc1[N+](=O)[O-])C(=O)C(C(=O)c1ccc2ccccc2c1)C1OC(=O)c2ccccc21 (stereo not given) | 58.2 µM |  | 43.5 µM | 55.6 µM | 30.3 µM | 21.6 µM | 50.7 µM |  | 27.3 µM | 52.7 µM |  |  |  |  |  |  |  |  | 
CN(C)CCNC(=O)c1cccc2ccc(-c3ccc(F)cc3)nc12 | 25.6 µM | 33.5 µM | 20.3 µM | 18 µM |  | 15.8 µM | 19.6 µM |  | 20.4 µM | 17.5 µM |  |  |  |  |  |  |  |  | 
Nc1n[nH]c(=O)c2c1c(I)cn2C1OC(CO)C(O)C1O (stereo not given) |  | > 100 µM | > 100 µM | 3.05 µM | 18.8 µM | 1.44 µM | 2.81 µM |  | 3.22 µM | > 100 µM |  |  |  |  |  |  |  |  | 
Oc1cn(-c2ccc(Cl)cc2)nc1-c1n[nH]c(=S)n1-c1ccccc1 | 46.2 µM | 9.4 µM | 22.2 µM | > 100 µM | 20.4 µM | 34.6 µM | > 100 µM | 27.1 µM | 36.9 µM | 37.5 µM |  |  |  |  |  |  |  |  | 
CC(C)(C)[Si](C)(C)Oc1ccc(C2CNC(=O)C23CCC(=O)N3Cc2ccccc2)cc1 (stereo not given) | 36.9 µM | 33 µM | 31.6 µM | 34.6 µM | 35 µM | 28.8 µM | 32.1 µM | 45.3 µM | 23.2 µM | 25.1 µM |  |  |  |  |  |  |  |  | 
Cc1cc2c(cc1C(=O)c1ccc(N)cc1)OCO2 | > 100 µM | 0.966 µM | > 100 µM | > 100 µM | > 100 µM | > 100 µM |  | > 100 µM |  |  |  |  |  |  |  |  |  |  | 
COc1cc(/C=C/C(=O)Oc2ccc(NC(C)=O)cc2)ccc1C(=O)O/C=C/c1ccccc1 | > 100 µM | > 100 µM | > 100 µM | > 100 µM |  | > 100 µM | > 100 µM |  | > 100 µM | > 100 µM |  |  |  |  |  |  |  |  | 
CC(=O)O[C@H]1CC[C@@]2(C)C(=CC[C@H]3[C@@H]4C/C(=C\c5ccc(N(C)C)cc5)[C@H](OC(C)=O)[C@@]4(C)CC[C@@H]32)C1 | 52.8 µM | 41.8 µM | 28.4 µM |  | 36 µM | 23.4 µM | > 100 µM | 19.1 µM | 42.7 µM | 36.6 µM |  |  |  |  |  |  |  |  | 
COc1ccc(C2=C3SC=c4ccccc4=C3ON=C2c2ccccc2)cc1 | > 100 µM | > 100 µM | > 100 µM | > 100 µM | > 100 µM | > 100 µM |  | > 100 µM | > 100 µM | > 100 µM |  |  |  |  |  |  |  |  | 
CCC(=O)O[C@H]1CC[C@H]2[C@@H]3CCC4=C/C(=N/OC(=O)c5cccc6cc7ccccc7nc56)CC[C@]4(C)[C@H]3CC[C@]12C | > 100 µM | > 100 µM | > 100 µM | > 100 µM | > 100 µM | > 100 µM | > 100 µM | > 100 µM | > 100 µM | > 100 µM |  |  |  |  |  |  |  |  | 
O=C1NI(C#Cc2ccccc2)c2ccccc21 |  | > 100 µM | > 100 µM |  | > 100 µM | > 100 µM |  | > 100 µM |  | > 100 µM |  |  |  |  |  |  |  |  | 
Cc1c2cccc-2c(OCCO)cc2c3ccccc3n(C)c12 | 16.1 µM | 5.56 µM | 7.77 µM | 6.13 µM | 12.2 µM | 10.1 µM | 35.5 µM | 16.2 µM | > 100 µM | 24 µM |  |  |  |  |  |  |  |  | 
C[C@H]1C(=O)O[C@@H]2CCN3CC=C(COC(=O)[C@](C)(O)[C@@]1(C)O)[C@H]23 | > 100 µM | > 100 µM | > 100 µM | > 100 µM | > 100 µM | > 100 µM | > 100 µM | > 100 µM |  | > 100 µM |  |  |  |  |  |  |  |  | 
Nc1ccccc1N=Cc1cc2cc([N+](=O)[O-])ccc2s1 | > 100 µM | 30.1 µM | 99.3 µM | 55.5 µM | 82.8 µM | 45.7 µM | 28.8 µM | 29.2 µM | 28.7 µM | 32.5 µM |  |  |  |  |  |  |  |  | 
CCc1nc(N)nc(N)c1-c1ccc([N+](C)(C)C)cc1 | > 100 µM | > 100 µM | > 100 µM | > 100 µM | > 100 µM | > 100 µM | > 100 µM | > 100 µM | > 100 µM | > 100 µM |  |  |  |  |  |  |  |  | 
FC(F)(F)c1ccc2c(c1)nc(-c1ccc(Cl)cc1)n2CC1CCCN2CCCCC12 (stereo not given) | 21.4 µM | 33.6 µM | 27.8 µM | 29.1 µM | 28 µM | 30.1 µM | 21.7 µM | 27 µM | 30.1 µM | 27.5 µM |  |  |  |  |  |  |  |  | 
